Data on six molecules can be found in US20230026277A1, “COMPOSITION FOR PREVENTION, ALLEVIATION, OR TREATMENT OF RESPIRATORY DISEASE” (MICROX CO., LTD., priority 2019, published 2023).

Holding throughout (format): in vivo
One assay concerns asthma-induced mice. The assay can be described thus: Bronchial hypersensitivity reaction (Rrs value, methacholine), asthma-induced mice. The note with it: for bronchial hypersensitivity reaction: Experiment Result 7, orally administered daily, FIG. 21. On the procedure:
(§1) Eight-week-old female […] mice (Orient Bio Korea Inc., Korea) having no certain pathogen were accommodated in an aseptic laminar-flow cabinet, and bred by supplying a standard solid feed ad libitum. When the following experiment was performed, the mice were made to correspond to 7- to 8-weeks old, and all laboratory animals were managed according to the protocol approved by the Institutional Animal Care and Use Committee of the Chonbuk National University Medical School.
(§2) Also, on days 21 and 28 from the experimental starting date, the mice were put into a plastic box (Plexiglas (Rohm & Haas, Philadelphia, Pa.) exposure chamber; 24.5 cm×40.5 cm×15.0 cm), and 1.5% ovalbumin was evaporated using an ultrasonic nebulizer (NE-U12; output 0.8 mL/min; Omron, Japan), and injected into the box for 30 minutes so that the mice inhaled the evaporated ovalbumin (secondary challenge).
45 mg/kg of sodium pentobarbital was intraperitoneally injected into the mice prepared in Experimental Method 1 to anesthetize the mice, and the airways were cut and an 18 gauge needle was inserted into the airways. Thereafter, the needle was connected to a small-sized animal respirator connected to a computer, and the computer system was adjusted to a respiration rate of 150 breaths per minute. Then, methacholine in the form of aerosol was fed at an increasing concentration of 5.0 to 50 mg/mL so that the mice inhaled the methacholine. Then, an airway response was measured, and indicated as an Rrs value.
Preparation Example 3 (α,δ-NA-L-G) or α,δ N-acetyl-D-glutamine was orally administered to the asthma-induced mice of Experimental Method 1 at a concentration of 200 or 400 μg/kg/day 30 minutes before a secondary airway challenge, and the bronchial hypersensitivity reaction was measured 48 hours after the secondary challenge using the method described in Experimental Method 5. The results are shown in A and B of FIG. 5.

The test system of the next assay is IL-4, IL-5, and IL-13. The assay can be described thus: Cytokines in bronchoalveolar lavage fluid by ELISA, asthma-induced mice. The note with it: asthma-induced mice; for expression levels of the cytokines (IL-4, IL-5, and IL-13): Experiment Result 7, orally administered daily, FIG. 20. On the procedure: as §1, §2
(§3) After the mice were anesthetized, a thin tube was inserted into the airway, and a piston process was repeated using a syringe filled with 0.2 mL of physiological saline to obtain a bronchoalveolar lavage fluid. The bronchoalveolar lavage fluid obtained through this piston process was stored at −70° C. when it was not immediately used in the experiments.
(§4) A level of cytokines in the bronchoalveolar lavage fluid obtained in Experimental Method 2 was measured using an ELISA kit. Here, ELISA kits specifically manufactured for TNF-α, IL-4, IL-5, and IL-13 were used.
Preparation Example 3 (α,δ-NA-L-G) or α,δ N-acetyl-D-glutamine was orally administered to the asthma-induced mice of Experimental Method 1 at a concentration of 100, 200, 400 or 800 μg/kg/day 30 minutes before a secondary airway challenge, and levels of IL-4, IL-5, and IL-13 were measured through the method described above in Experimental Method 4 24 hours after the secondary challenge. The results are shown in A and B of FIG. 4.

Assay [1] concerns neutrophils and eosinophils introduced into the airway. The assay can be described thus: Inflammatory cells (neutrophils and eosinophils) in bronchoalveolar lavage fluid, Diff-Quik staining, asthma-induced mice. As to conditions: asthma-induced mice; for cell numbers of neutrophils and eosinophils: Experiment Result 7, orally administered daily, FIG. 19. As to the method: as §1, §2, §3
50 μL of the bronchoalveolar lavage fluid obtained in Experimental Method 2 was put on a slide used for the cytospin, and centrifuged for 30 minutes. Thereafter, Diff-Quik staining was performed, and inflammatory cells (neutrophils and eosinophils) were observed using a microscope.
Preparation Example 3 (α,δ-NA-L-G) or α,δ N-acetyl-D-glutamine (α,δ-NA-D-G) was orally administered to the asthma-induced mice of Experimental Method 1 daily from the experimental starting date at a concentration of 50, 100, or 200 μg/kg/day, and the cell numbers of neutrophils and eosinophils introduced into the airway through the method of Experimental Method 3 were measured. The results are shown in A and B of FIG. 3. In this case, the cell numbers were measured at 10 hours (neutrophils) or 48 hours (eosinophils) after a secondary challenge.

Another assay concerns CK2α protein. As to the kind of experiment: Western blot of CK2α protein in lung of asthma-induced mice. As to conditions: administered daily; 1 or 2 hours after the secondary challenge; FIG. 10. On the procedure: as §2
A tissue was extracted from each of the mice manufactured in Experimental Method 1, and finely ground to a cell level. Thereafter, the cells were lysed in a cell lysis buffer containing a protease inhibitor to obtain a cell lysate. The cell lysate was centrifuged to obtain protein. Then, an equivalent amount of the proteins obtained from the cells were loaded on an SDS-PAGE gel and electrophoresed. The proteins present in the electrophoresed gel were transferred to a PVDF membrane. The PVDF membrane was washed, and added to a blocking buffer in which 5% skim milk was included in a TBS-T buffer, and incubated at room temperature. Then, the PVDF membrane was incubated at room temperature with an antibody diluted 1:1,000 in a TBS-T buffer containing 3% BSA. […] The PVDF membrane was washed three times with a TBS-T buffer, and visualized and quantified using an ECL Western blotting detection reagent. […]
Specifically, the secondary challenge (ovalbumin injection) was performed according to the method described above in Experimental Method 1, and the lungs were extracted after an hour, and then measured according to the method described above in Experimental Method 7. […] Also, the level of TNF-α corresponding to an NK-κB-dependent cytokine was measured by ELISA according to the method described above in Experimental Method 4. […]
The secondary challenge (ovalbumin injection) was performed according to the method described above in Experimental Method 1, and the lungs were extracted after 1 or 2 hours, and then measured according to the method described above in Experimental Method 7. […]

A further assay has as its system NF-κB and TNF-α. As to the kind of experiment: NF-κB (Western blot) and TNF-α (ELISA) in asthma-induced mice. As to conditions: administered daily. On the procedure: as §2, §4
A tissue was extracted from each of the mice manufactured in Experimental Method 1, and finely ground to a cell level. Thereafter, the cells were lysed in a cell lysis buffer containing a protease inhibitor to obtain a cell lysate. The cell lysate was centrifuged to obtain protein. Then, an equivalent amount of the proteins obtained from the cells were loaded on an SDS-PAGE gel and electrophoresed. The proteins present in the electrophoresed gel were transferred to a PVDF membrane. The PVDF membrane was washed, and added to a blocking buffer in which 5% skim milk was included in a TBS-T buffer, and incubated at room temperature. Then, the PVDF membrane was incubated at room temperature with an antibody diluted 1:1,000 in a TBS-T buffer containing 3% BSA. Then, the PVDF membrane was washed with a TBS-T buffer, and incubated at room temperature for an hour with a dilute solution containing HRP-bound IgG. The PVDF membrane was washed three times with a TBS-T buffer, and visualized and quantified using an ECL Western blotting detection reagent.
Here, antibodies specific to elastin, caspase-3, collagen, MKP-1, p-cPLA, p-p38, NF-κB(p65), CK2α, GAPDH, or β-actin were used in the Western blot.
Specifically, the secondary challenge (ovalbumin injection) was performed according to the method described above in Experimental Method 1, and the lungs were extracted after an hour, and then measured according to the method described above in Experimental Method 7. The results are shown in A of FIG. 9. Also, the level of TNF-α corresponding to an NK-κB-dependent cytokine was measured by ELISA according to the method described above in Experimental Method 4. The results are shown in B of FIG. 9. […]
The secondary challenge (ovalbumin injection) was performed according to the method described above in Experimental Method 1, and the lungs were extracted after 30 or 60 minutes, and then measured according to the method described above in Experimental Method 7. […] Also, the level of TNF-α corresponding to an NK-κB-dependent cytokine was measured by ELISA according to the method described above in Experimental Method 4. […]

Regarding `CC(=O)NC(=O)CC[C@H](NC(C)=O)C(=O)OCc1ccccc1` [Preparation Example 2, Benzyl 2,5-diacetamido-5-oxopentanoate], in the assay with asthma-induced mice, the bronchial hypersensitivity reaction result was “inhibited”. Further, the “expression levels of the cytokines (IL-4, IL-5, and IL-13)” value (“expression levels of the cytokines” for short) in the assay with IL-4, IL-5, and IL-13 is given as “decreased”. In assay [1], the “cell numbers of neutrophils and eosinophils” value (shortened to “cell numbers”) is “decreased”.
In the case of `CCOC(=O)[C@H](CCC(=O)NC(C)=O)NC(C)=O` [Preparation Example 4, Ethyl 2,5-diacetamido-5-oxopentanoate], the bronchial hypersensitivity reaction result in the assay on asthma-induced mice is given as “inhibited”. In addition, the “expression levels of the cytokines” value with IL-4, IL-5, and IL-13 was “decreased”. Moreover, the “cell numbers” value in assay [1] is listed as “decreased”.
`COC(=O)[C@H](CCC(=O)NC(C)=O)NC(C)=O` [Preparation Example 6]: the bronchial hypersensitivity reaction entry with asthma-induced mice is “inhibited”. The “expression levels of the cytokines” value with IL-4, IL-5, and IL-13 is “decreased”. Further, the “cell numbers” value in assay [1] is listed as “decreased”.
In the case of `Oc1ccc(-c2nc(-c3ccncc3)c(-c3ccc(F)cc3)[nH]2)cc1` [SB202190, reference compound], the “level of the CK2α protein” value in the assay with CK2α protein is reported as “decreased”.
In the case of `Brc1c(Br)c(Br)c2n[nH]nc2c1Br` [inhibitor of the CK2α protein, TBBt, reference compound], the “level of the presence of the TNF-α protein” value in the assay with NF-κB and TNF-α (ELISA, FIG. 11B) is given as “decreased”. Moreover, the “level of the NF-κB protein” value with NF-κB and TNF-α (at 30 and 60 minutes after secondary challenge, FIG. 11) is “decreased”.
In the case of `CC(=O)NC(=O)CC[C@@H](NC(C)=O)C(=O)O` [α,δ N-acetyl-D-glutamine, reference compound], the “Rrs value (bronchial hypersensitivity reaction)” value in the assay on asthma-induced mice (oral 200 or 400 μg/kg/day 30 minutes before secondary challenge, 48 hours after, methacholine 5.0 to 50 mg/mL, FIG. 5) is on record as “did not exhibit an inhibitory effect”. Moreover, the “levels of the cytokines (IL-4, IL-5, IL-13)” value in the assay on IL-4, IL-5, and IL-13 (oral 100, 200, 400 or 800 μg/kg/day, regardless of the concentration, 24 hours after secondary challenge, FIG. 4B) is given as “did not inhibit”. Besides, the “inflow of the neutrophils and eosinophils into the airway” value in assay [1] (oral daily 50, 100 or 200 μg/kg/day, neutrophils 10 hours, eosinophils 48 hours after secondary challenge, FIG. 3) is “not inhibited”.
